The text below walks through data of publication PMC10175918 (Communications Biology, 2023).

Read-outs that look alike come from different tables or passages of the source.

What all share (assay): TGFα-shedding assay-based GPCR screening with chimeric Gα subunit proteins
Type in all cases: cell-based

In test [1] the target is T1, 348 GPCRs (Homo sapiens, UniProt O00574).
T1 construct: expressed in transfected cells; host or cells: HEK293A
The settings on record: 10µM.

The target of test [2] is T2, 348 GPCRs (Homo sapiens, UniProt P08588).
T2 construct: expressed in transfected cells; host or cells: HEK293A
The settings on record: 10µM.

In test [3] the target is T3, 348 GPCRs (Homo sapiens, UniProt P13945).
T3 construct: expressed in transfected cells; host or cells: HEK293A
The note with it: 10µM, Favipiravir 100μM.

Test [4] deals with T4, 348 GPCRs (Homo sapiens, UniProt P21917).
T4 sequence (P21917 1-419): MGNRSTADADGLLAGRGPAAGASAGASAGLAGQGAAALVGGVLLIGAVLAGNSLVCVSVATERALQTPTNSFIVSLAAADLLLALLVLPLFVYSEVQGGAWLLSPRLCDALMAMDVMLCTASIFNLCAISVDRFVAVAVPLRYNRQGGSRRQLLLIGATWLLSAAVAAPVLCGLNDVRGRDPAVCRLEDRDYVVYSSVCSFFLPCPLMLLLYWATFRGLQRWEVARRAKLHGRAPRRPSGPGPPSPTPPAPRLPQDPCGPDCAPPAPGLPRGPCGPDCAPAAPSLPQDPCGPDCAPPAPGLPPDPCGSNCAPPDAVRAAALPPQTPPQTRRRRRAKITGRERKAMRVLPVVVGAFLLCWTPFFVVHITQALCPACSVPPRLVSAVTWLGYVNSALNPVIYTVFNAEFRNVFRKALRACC
The settings on record: 10µM, Favipiravir 100μM.

For test [5], the target named is T5, 348 GPCRs (Homo sapiens, UniProt P30542).
T5 sequence (P30542 1-326): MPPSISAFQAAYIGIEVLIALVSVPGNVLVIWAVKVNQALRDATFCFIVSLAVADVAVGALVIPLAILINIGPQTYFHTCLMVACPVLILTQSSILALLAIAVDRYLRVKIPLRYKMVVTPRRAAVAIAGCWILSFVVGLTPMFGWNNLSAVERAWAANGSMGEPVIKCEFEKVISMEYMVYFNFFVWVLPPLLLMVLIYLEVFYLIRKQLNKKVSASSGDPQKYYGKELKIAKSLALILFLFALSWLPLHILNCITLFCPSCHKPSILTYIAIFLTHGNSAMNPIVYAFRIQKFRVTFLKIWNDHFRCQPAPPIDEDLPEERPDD
The settings on record: 10µM, Favipiravir 100μM.

Test [6] concerns the target T6, 348 GPCRs (Homo sapiens, UniProt P41586).
T6 construct: expressed in transfected cells; host or cells: HEK293A
T6 sequence (P41586 21-468): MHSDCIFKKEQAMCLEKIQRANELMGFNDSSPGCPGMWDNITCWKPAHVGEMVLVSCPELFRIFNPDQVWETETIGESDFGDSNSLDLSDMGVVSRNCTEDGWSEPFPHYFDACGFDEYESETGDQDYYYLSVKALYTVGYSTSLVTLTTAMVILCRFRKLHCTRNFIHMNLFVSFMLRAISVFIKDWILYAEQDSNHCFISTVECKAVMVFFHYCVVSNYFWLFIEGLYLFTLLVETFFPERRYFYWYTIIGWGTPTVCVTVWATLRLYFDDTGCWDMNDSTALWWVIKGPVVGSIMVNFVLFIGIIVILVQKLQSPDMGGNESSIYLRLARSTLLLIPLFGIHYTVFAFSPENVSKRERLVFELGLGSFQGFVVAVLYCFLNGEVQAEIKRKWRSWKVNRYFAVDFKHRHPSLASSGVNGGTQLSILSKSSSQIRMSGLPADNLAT
The settings on record: 10µM, Favipiravir 100μM.

For test [7], the target named is T7, 348 GPCRs (Homo sapiens, UniProt P41594).
T7 construct: expressed in transfected cells; host or cells: HEK293A
The note with it: 10µM, Favipiravir 100μM.

Test [8] deals with T8, 348 GPCRs (Homo sapiens, UniProt P49238).
T8 construct: expressed in transfected cells; host or cells: HEK293A
T8 sequence (P49238 1-355): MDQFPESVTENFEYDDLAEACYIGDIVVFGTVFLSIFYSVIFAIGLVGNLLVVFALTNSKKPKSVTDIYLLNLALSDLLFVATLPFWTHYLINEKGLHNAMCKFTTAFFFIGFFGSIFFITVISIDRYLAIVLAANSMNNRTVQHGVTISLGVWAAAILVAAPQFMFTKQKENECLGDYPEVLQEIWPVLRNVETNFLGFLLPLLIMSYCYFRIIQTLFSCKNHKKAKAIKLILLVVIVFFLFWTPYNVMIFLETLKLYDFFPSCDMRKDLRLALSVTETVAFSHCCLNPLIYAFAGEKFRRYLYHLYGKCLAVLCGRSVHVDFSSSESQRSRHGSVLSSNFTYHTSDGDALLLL
The settings on record: GPCR CX3CR1 (chemokine (C-X3-C motif) receptor 1); 10µM.

For test [9], the target named is T9, 348 GPCRs (Homo sapiens, UniProt Q13585).
T9 construct: expressed in transfected cells; host or cells: HEK293A
The settings on record: 10µM.

In test [10] the target is T10, 348 GPCRs (Homo sapiens, UniProt Q15722).
T10 construct: expressed in transfected cells; host or cells: HEK293A
The settings on record: 10µM, Favipiravir 100μM.

Test [11] addresses T11, 348 GPCRs (Homo sapiens, UniProt Q8TDV2).
T11 construct: expressed in transfected cells; host or cells: HEK293A
The settings on record: 10µM, Favipiravir 100μM.

The target in test [12] is T12, 348 GPCRs (Homo sapiens, UniProt Q9GZQ4).
T12 construct: expressed in transfected cells; host or cells: HEK293A
The settings on record: 10µM, Favipiravir 100μM.

Test [13] concerns the target T13, 348 GPCRs (Homo sapiens, UniProt Q9NQS5).
T13 construct: expressed in transfected cells; host or cells: HEK293A
The note with it: 10µM, Favipiravir 100μM.

Where [14] appears, read: GPCR CXCR6 (C-X-C motif chemokine receptor 6), read-out: % GPCR activation compared to TPA.
[15] abbreviates: GPCR β1 (adrenoceptor beta 1), read-out: % GPCR activation compared to TPA.
Setting [16] is: ADRB3 (adrenoceptor beta 3), read-out: % GPCR activation compared to TPA.
Setting [17] is: D4 (dopamine receptor D4), read-out: % GPCR activation compared to TPA.
The mark [18] stands for this setting: ADORA1 (adenosine A1 receptor), read-out: % GPCR activation compared to TPA.
Where [19] appears, read: ADCYAP1 (ADCYAP receptor type I), read-out: % GPCR activation compared to TPA.
Where [20] appears, read: GRM5 (glutamate receptor, metabotropic 5), read-out: % GPCR activation compared to TPA.
Where [21] appears, read: GPCR GPR50 (G Protein-Coupled Receptor 50), read-out: % GPCR activation compared to TPA.
Where [22] appears, read: LTB4R (leukotriene B4 receptor), read-out: % GPCR activation compared to TPA.
Setting [23] is: GPR148 (G Protein-Coupled Receptor 148), read-out: % GPCR activation compared to TPA.
[24] abbreviates: NMUR2 (neuromedin U receptor 2), read-out: % GPCR activation compared to TPA.
[25] abbreviates: GPR84 (G protein-coupled receptor 84), read-out: % GPCR activation compared to TPA.

T13 sequence (Q9NQS5 whole entry): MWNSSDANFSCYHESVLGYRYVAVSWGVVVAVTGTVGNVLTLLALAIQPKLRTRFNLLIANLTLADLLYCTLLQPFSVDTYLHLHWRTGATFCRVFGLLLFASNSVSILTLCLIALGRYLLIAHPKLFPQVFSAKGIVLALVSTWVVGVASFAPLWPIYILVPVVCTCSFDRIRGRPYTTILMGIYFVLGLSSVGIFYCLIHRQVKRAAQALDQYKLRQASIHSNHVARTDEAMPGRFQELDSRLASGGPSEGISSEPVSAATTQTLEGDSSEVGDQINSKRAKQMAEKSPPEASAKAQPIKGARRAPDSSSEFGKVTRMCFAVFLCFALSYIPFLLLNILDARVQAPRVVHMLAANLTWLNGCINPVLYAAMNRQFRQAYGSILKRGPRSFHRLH
T11 sequence (Q8TDV2 whole entry): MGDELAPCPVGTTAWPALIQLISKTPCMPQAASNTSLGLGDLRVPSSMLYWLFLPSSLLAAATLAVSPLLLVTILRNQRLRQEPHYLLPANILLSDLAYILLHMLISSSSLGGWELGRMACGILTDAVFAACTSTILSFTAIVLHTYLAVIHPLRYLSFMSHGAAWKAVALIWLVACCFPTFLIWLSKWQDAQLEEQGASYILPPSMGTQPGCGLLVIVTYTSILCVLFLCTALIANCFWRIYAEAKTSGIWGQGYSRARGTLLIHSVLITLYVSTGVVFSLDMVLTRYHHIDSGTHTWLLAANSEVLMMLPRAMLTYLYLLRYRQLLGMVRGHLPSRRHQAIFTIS
T1 sequence (O00574 whole entry): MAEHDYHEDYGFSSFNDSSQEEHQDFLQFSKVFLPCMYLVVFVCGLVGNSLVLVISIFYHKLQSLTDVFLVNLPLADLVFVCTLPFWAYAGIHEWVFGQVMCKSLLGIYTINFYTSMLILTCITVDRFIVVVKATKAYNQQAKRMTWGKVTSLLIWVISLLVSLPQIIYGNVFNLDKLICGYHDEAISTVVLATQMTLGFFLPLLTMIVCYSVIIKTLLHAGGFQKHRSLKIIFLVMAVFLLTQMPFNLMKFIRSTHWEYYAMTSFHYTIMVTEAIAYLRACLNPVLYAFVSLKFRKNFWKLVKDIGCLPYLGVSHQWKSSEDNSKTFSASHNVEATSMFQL
T7 sequence (P41594 21-1212): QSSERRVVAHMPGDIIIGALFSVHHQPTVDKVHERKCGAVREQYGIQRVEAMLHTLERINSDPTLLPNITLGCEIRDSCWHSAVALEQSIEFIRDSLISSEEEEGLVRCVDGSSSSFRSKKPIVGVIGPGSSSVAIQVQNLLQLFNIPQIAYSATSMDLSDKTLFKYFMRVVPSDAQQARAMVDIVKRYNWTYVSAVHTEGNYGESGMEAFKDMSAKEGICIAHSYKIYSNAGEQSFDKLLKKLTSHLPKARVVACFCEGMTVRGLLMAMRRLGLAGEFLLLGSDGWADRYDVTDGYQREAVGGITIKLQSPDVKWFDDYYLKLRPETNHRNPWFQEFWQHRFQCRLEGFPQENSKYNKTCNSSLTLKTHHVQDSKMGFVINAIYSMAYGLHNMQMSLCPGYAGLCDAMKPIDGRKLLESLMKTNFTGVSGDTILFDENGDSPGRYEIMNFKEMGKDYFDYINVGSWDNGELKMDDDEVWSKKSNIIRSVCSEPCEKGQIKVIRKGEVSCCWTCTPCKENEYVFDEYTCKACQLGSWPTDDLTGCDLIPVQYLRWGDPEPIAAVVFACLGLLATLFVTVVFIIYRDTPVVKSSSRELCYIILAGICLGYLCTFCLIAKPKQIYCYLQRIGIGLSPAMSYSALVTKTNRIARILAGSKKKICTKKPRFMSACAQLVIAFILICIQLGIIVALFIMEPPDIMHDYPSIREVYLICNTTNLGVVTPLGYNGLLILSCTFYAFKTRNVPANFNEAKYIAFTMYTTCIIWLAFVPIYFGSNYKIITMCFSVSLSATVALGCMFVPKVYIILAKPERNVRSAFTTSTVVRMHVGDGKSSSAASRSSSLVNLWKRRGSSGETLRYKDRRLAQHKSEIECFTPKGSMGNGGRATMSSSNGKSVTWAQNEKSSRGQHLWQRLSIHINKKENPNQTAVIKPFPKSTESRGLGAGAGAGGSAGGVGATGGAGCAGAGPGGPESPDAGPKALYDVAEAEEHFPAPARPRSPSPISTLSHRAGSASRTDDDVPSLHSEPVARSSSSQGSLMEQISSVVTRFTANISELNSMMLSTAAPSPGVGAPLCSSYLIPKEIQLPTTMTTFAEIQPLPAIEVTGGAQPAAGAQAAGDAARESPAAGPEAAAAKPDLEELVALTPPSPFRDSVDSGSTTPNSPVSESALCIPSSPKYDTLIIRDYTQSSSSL
T12 sequence (Q9GZQ4 whole entry): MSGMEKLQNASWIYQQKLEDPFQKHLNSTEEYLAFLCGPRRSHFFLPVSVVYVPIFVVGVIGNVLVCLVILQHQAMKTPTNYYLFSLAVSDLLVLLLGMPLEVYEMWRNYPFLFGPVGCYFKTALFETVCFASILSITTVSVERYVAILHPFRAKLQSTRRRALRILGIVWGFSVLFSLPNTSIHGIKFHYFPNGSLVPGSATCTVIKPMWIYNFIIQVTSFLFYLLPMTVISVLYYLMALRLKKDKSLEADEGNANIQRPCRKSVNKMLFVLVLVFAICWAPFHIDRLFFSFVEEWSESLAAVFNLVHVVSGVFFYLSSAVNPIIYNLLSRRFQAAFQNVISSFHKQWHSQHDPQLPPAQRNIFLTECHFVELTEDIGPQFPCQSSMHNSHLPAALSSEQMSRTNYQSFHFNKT
T10 sequence (Q15722 whole entry): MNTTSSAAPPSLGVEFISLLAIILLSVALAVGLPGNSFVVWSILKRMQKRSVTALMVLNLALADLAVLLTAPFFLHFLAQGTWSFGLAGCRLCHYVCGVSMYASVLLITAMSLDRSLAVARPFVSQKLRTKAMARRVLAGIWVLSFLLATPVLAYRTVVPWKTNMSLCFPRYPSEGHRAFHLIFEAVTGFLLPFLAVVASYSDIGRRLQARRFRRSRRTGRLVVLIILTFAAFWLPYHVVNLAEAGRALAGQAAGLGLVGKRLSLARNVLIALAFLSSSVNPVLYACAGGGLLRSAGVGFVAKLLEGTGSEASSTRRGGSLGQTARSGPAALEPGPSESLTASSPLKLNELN
T2 sequence (P08588 whole entry): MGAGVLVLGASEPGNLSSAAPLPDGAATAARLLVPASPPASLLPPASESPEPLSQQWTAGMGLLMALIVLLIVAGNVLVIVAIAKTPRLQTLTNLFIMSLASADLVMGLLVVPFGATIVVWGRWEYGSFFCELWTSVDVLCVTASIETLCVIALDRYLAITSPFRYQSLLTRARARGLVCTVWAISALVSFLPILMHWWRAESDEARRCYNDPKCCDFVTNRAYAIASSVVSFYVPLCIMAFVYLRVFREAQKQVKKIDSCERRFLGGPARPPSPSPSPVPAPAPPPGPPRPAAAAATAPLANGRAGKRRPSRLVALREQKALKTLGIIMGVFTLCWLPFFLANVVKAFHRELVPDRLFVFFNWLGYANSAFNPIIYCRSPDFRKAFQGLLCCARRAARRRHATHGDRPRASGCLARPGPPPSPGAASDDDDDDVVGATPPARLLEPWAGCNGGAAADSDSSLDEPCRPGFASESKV
T9 sequence (Q13585 whole entry): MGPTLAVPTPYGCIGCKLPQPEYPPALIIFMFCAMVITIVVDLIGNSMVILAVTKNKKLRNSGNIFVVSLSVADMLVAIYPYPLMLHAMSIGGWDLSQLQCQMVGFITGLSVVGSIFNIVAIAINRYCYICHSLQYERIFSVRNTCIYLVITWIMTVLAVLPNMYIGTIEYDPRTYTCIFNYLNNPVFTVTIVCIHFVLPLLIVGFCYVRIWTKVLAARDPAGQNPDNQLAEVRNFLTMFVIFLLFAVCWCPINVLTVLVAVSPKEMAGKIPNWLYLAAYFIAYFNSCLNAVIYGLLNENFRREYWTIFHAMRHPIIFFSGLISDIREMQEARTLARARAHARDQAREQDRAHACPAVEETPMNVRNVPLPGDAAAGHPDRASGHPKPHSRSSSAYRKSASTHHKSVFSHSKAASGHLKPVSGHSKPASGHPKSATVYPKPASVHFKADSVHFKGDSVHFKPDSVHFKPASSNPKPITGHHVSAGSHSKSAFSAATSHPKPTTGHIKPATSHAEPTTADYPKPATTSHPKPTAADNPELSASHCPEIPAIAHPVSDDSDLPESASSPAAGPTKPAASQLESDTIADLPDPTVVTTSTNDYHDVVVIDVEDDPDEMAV
T3 sequence (P13945 whole entry): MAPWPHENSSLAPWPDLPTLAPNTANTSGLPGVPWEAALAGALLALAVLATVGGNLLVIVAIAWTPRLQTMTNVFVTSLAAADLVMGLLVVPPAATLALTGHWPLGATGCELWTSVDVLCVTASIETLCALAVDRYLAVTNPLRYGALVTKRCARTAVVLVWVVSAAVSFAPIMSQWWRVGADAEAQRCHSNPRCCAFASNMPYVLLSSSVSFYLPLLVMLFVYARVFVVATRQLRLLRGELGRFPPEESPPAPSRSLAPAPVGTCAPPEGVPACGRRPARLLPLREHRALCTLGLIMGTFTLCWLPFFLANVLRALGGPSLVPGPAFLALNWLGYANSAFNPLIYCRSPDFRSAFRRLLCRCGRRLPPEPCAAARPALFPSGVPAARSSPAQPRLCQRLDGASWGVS

Take `CCC(CC)COC(=O)[C@H](C)N[P@](=O)(OC[C@H]1O[C@@](C#N)(c2ccc3c(N)ncnn23)[C@H](O)[C@@H]1O)Oc1ccccc1` [remdesivir]: the activation at 10 µM was 0.837% on 348 GPCRs [1] (read-out: % GPCR activation compared to TPA, GPCR CXCR6 (C-X-C motif chemokine receptor 6)); 1.07% at 348 GPCRs [2] (read-out: % GPCR activation compared to TPA, GPCR β1 (adrenoceptor beta 1)); -0.789% on 348 GPCRs [3] (read-out: % GPCR activation compared to TPA, ADRB3 (adrenoceptor beta 3)); 2.34% at 348 GPCRs [7] (read-out: % GPCR activation compared to TPA, GRM5 (glutamate receptor, metabotropic 5)); -1.37% on 348 GPCRs [9] (read-out: % GPCR activation compared to TPA, GPCR GPR50 (G Protein-Coupled Receptor 50)); -0.224% at 348 GPCRs [10] (read-out: % GPCR activation compared to TPA, LTB4R (leukotriene B4 receptor)). For the same molecule, the activation at 10 µM at 348 GPCRs [12] (read-out: % GPCR activation compared to TPA, NMUR2 (neuromedin U receptor 2)) was 0.527%. For the same molecule, the activation at 100 µM at 348 GPCRs [4] (read-out: % GPCR activation compared to TPA, D4 (dopamine receptor D4)) was 4.84%; at 348 GPCRs [5] (read-out: % GPCR activation compared to TPA, ADORA1 (adenosine A1 receptor)), 3.8%; at 348 GPCRs [6] (read-out: % GPCR activation compared to TPA, ADCYAP1 (ADCYAP receptor type I)), 2.11%; on 348 GPCRs [11] (read-out: % GPCR activation compared to TPA, GPR148 (G Protein-Coupled Receptor 148)), -2.35%; at 348 GPCRs [13] (read-out: % GPCR activation compared to TPA, GPR84 (G protein-coupled receptor 84)), 2.57%. Further, the “% GPCR activation compared to TPA” value at 348 GPCRs [8] is 2.076%.
Regarding `N#C[C@@]1(c2ccc3c(N)ncnn23)O[C@H](CO)[C@@H](O)[C@H]1O` [GS441524], the activation at 10 µM was -0.956% on 348 GPCRs [1] (setting [14]); -0.381% at 348 GPCRs [2] (setting [15]); 0.201% at 348 GPCRs [3] (setting [16]); 1.65% at 348 GPCRs [7] (setting [20]); -1.05% on 348 GPCRs [9] (setting [21]); 0.849% at 348 GPCRs [10] (setting [22]). Moreover, the activation at 10 µM on 348 GPCRs [12] (setting [24]) is 2.73%. Also, the activation at 100 µM on 348 GPCRs [4] (setting [17]) was 3.32%; on 348 GPCRs [5] (setting [18]), 0.705%; on 348 GPCRs [6] (setting [19]) it was 3.21%; at 348 GPCRs [11] (setting [23]), -2.05%; at 348 GPCRs [13] (setting [25]), 5.15%. The “% GPCR activation compared to TPA” value at 348 GPCRs [8] is recorded as -0.5209%.
For `CC(C)C(=O)OC[C@H]1O[C@@H](n2ccc(NO)nc2=O)[C@H](O)[C@@H]1O` [molnupiravir], the activation at 10 µM at 348 GPCRs [1] (setting [14]) was 0.979%; at 348 GPCRs [2] (setting [15]), 0.738%; on 348 GPCRs [3] (setting [16]), -0.737%; on 348 GPCRs [7] (setting [20]), 0.891%; at 348 GPCRs [9] (setting [21]) it was -1.45%; on 348 GPCRs [10] (setting [22]), -0.697%. Further, the activation at 10 µM at 348 GPCRs [12] (setting [24]) is -2.66%. Further, the activation at 100 µM is -1.43% at 348 GPCRs [4] (setting [17]); -3.9% at 348 GPCRs [5] (setting [18]); -0.597% at 348 GPCRs [6] (setting [19]); -3.32% at 348 GPCRs [11] (setting [23]); -3.53% on 348 GPCRs [13] (setting [25]). Besides, the “% GPCR activation compared to TPA” value on 348 GPCRs [8] was -0.5795%.
